Patent publication US8097628B2, “Compounds” (Glaxo Group Limited, priority 2008, dated 2012)
Values after ≈ are worked out from the molar mass of the structure shown. Like-named read-outs stand apart in the source and are kept apart here.

Assays:
[1] = test system: Mycobacterium tuberculosis H37Rv; test: Mycobacterium tuberculosis H37Rv Inhibition Assay; format: cell-based
E. coli 120 AcrAB- = test: Antimicrobial Activity Assay, whole-cell broth microdilution (CLSI M7-A7); format: cell-based; conditions: Escherichia coli, read-out: lowest MIC
Method: Whole-cell antimicrobial activity was determined by broth microdilution using the Clinical Laboratory Standards Institute (CLSI) recommended procedure, Document M7-A7, “Methods for Dilution Susceptibility Tests for Bacteria that Grow Aerobically”.
In addition, compounds were evaluated against a panel of Gram-negative organisms including Haemophilus influenzae, Moraxella catarrhalis, Escherichia coli,
The minimum inhibitory concentration (MIC) was determined as the lowest concentration of compound that inhibited visible growth. A mirror reader was used to assist in determining the MIC endpoint.

[2] = ATCC 25618 / H37Rv, H37Rv strain (ATCC25618), Middlebrook 7H9, resazurin fluorescence, read-out: MtB MIC
[3] = H37Rv inhibition assay, read-out: MIC value

Cc1cc(CNC2CCN(C[C@@H]3Cn4c(=O)ccc5ccc(=O)n3c54)CC2)cnc1C#N [Example 32, 5-{[(1-{[(1R)-4,9-dioxo-1,2-dihydro-4H,9H-imidazo[1,2,3-ij]-1,8-naphthyridin-1-yl]methyl}-4-piperidinyl)amino]methyl}-3-methyl-2-pyridinecarbonitrile]
MIC [1, 2]: 0.538 µg/mL (≈ 1.25 µM)
MIC (E. coli 120 AcrAB-): 4 µg/mL (≈ 9.29 µM)

Cc1ncc(CNC2CCN(CC3Cn4c(=O)ccc5ncc(=O)n3c54)CC2)cc1Cl (stereo not drawn) [Example 26, 2-[(4-{[(5-chloro-6-methyl-3-pyridinyl)methyl]amino}-1-piperidinyl)methyl]-1,2-dihydro-3H,8H-2a,5,8a-triazaacenaphthylene-3,8-dione]
MIC [1, 2]: 0.069 µg/mL (≈ 0.156 µM)

Cc1cc(CNC2CCN(CC3Cn4c(=O)ccc5ncc(=O)n3c54)CC2)cnc1C (stereo not drawn) [Example 14, 2-[(4-{[(5,6-dimethyl-3-pyridinyl)methyl]amino}-1-piperidinyl)methyl]-1,2-dihydro-3H,8H-2a,5,8a-triazaacenaphthylene-3,8-dione]
MIC [1, 2]: 2.1 µg/mL (≈ 5 µM)
MIC [1, 3]: > 1 µg/mL

Cc1cc(CNC2CCN(C[C@@H]3Cn4c(=O)ccc5ccc(=O)n3c54)CC2)cnc1C [Example 13, (1R)-1-[(4-{[(5,6-dimethyl-3-pyridinyl)methyl]amino}-1-piperidinyl)methyl]-1,2-dihydro-4H,9H-imidazo[1,2,3-ij]-1,8-naphthyridine-4,9-dione]
MIC [1, 2]: 1.05 µg/mL (≈ 2.5 µM)
MIC [1, 3]: > 1 µg/mL

O=c1cnc2ccc(=O)n3c2n1C[C@H]3CN1CCC(NCc2ccc(Cl)c(Cl)c2)CC1 [Example 10, (1R)-1-[(4-{[(3,4-dichlorophenyl)methyl]amino}-1-piperidinyl)methyl]-1,2-dihydro-3H,8H-2a,5,8a-triazaacenaphthylene-3,8-dione]
MIC [1, 2]: < 0.02 µg/mL

Cc1ncc(CNC2CCN(C[C@@H]3Cn4c(=O)ccc5ccc(=O)n3c54)CC2)cc1Cl.Cl [Example 1, (1R)-1-[(4-{[(5-chloro-6-methyl-3-pyridinyl)methyl]amino}-1-piperidinyl)methyl]-1,2-dihydro-4H,9H-imidazo[1,2,3-ij]-1,8-naphthyridine-4,9-dione hydrochloride]
MIC [1, 2]: 0.04 µg/mL

Cc1ncc(CNC2CCN(C[C@@H]3Cn4c(=O)ccc5ncc(=O)n3c54)CC2)cc1Cl.Cl [Example 2, (2R)-2-[(4-{[(5-chloro-6-methyl-3-pyridinyl)methyl]amino}-1-piperidinyl)methyl]-1,2-dihydro-3H,8H-2a,5,8a-triazaacenaphthylene-3,8-dione hydrochloride]
MIC [1, 2]: 0.04 µg/mL

CC(=O)OCc1ccc(CNC2CCN(C[C@@H]3Cn4c(=O)ccc5ccc(=O)n3c54)CC2)cc1Cl [Example 71, (2-chloro-4-{[(1-{[(1R)-4,9-dioxo-1,2-dihydro-4H,9H-imidazo[1,2,3-ij]-1,8-naphthyridin-1-yl]methyl}-4-piperidinyl)amino]methyl}phenyl)methyl acetate]
MIC [1, 3]: > 1 µg/mL

O=c1ccc2ccc(=O)n3c2n1C[C@H]3CN1CCC(NCc2ccc(C(F)(F)F)nc2)CC1 [Example 9, (1R)-1-{[4-({[6-(trifluoromethyl)-3-pyridinyl]methyl}amino)-1-piperidinyl]methyl}-1,2-dihydro-4H,9H-imidazo[1,2,3-ij]-1,8-naphthyridine-4,9-dione]
MIC ([1]; ATCC 25618 / H37Rv, read-out: MtB MIC): 0.14 µg/mL (≈ 0.305 µM)

Cc1ncc(CNC2CCN(C[C@@H]3Cn4c(=O)ccc5ccc(=O)n3c54)CC2)cc1Br.Cl [Example 12, (1R)-1-[(4-{[(5-bromo-6-methyl-3-pyridinyl)methyl]amino}-1-piperidinyl)methyl]-1,2-dihydro-4H,9H-imidazo[1,2,3-ij]-1,8-naphthyridine-4,9-dione hydrochloride]
MIC [1, 2]: < 0.019 µg/mL

COc1ccc(CNC2CCN(CC3Cn4c(=O)ccc5ncc(=O)n3c54)CC2)cc1Cl (stereo not drawn) [Example 39, 2-{[4-({[3-chloro-4-(methyloxy)phenyl]methyl}amino)-1-piperidinyl]methyl}-1,2-dihydro-3H,8H-2a,5,8a-triazaacenaphthylene-3,8-dione]
MIC [1, 2]: 1.14 µg/mL (≈ 2.5 µM)
MIC [1, 3]: > 1 µg/mL

Cc1cc(CNC2CCN(CC3Cn4c(=O)ccc5ncc(=O)n3c54)CC2)ccc1Cl (stereo not drawn) [Example 34, 2-[(4-{[(4-chloro-3-methylphenyl)methyl]amino}-1-piperidinyl)methyl]-1,2-dihydro-3H,8H,2a,5,8a-triazaacenaphthylene-3,8-dione]
MIC [1, 2]: 0.069 µg/mL (≈ 0.157 µM)

Cl.O=c1ccc2ccc(=O)n3c2n1C[C@H]3CN1CCC(NCc2ccc(Cl)c(Cl)c2)CC1 [Example 31, (1R)-1-[(4-{[(3,4-dichlorophenyl)methyl]amino}-1-piperidinyl)methyl]-1,2-dihydro-4H,9H-imidazo[1,2,3-ij]-1,8-naphthyridine-4,9-dione hydrochloride]
MIC [1, 2]: 0.019 µg/mL

O=c1ccc2ccc(=O)n3c2n1C[C@H]3CN1CCC(NCc2ccc(CO)c(Cl)c2)CC1 [Example 64, (1R)-1-{[4-({[3-chloro-4-(hydroxymethyl)phenyl]methyl}amino)-1-piperidinyl]methyl}-1,2-dihydro-4H,9H-imidazo[1,2,3-ij]-1,8-naphthyridine-4,9-dione]
MIC [1, 3]: > 1 µg/mL

Cl.O=c1ccc2ccc(=O)n3c2n1C[C@H]3CN1CCC(NCc2ccc(C(F)(F)F)nc2)CC1 [Example 59, (1R)-1-{[4-({[6-(trifluoromethyl)-3-pyridinyl]methyl}amino)-1-piperidinyl]methyl}-1,2-dihydro-4H,9H-imidazo[1,2,3-ij]-1,8-naphthyridine-4,9-dione hydrochloride]
MIC [1, 2]: 0.154 µg/mL

Cl.O=c1ccc2ncc(=O)n3c2n1C[C@H]3CN1CCC(NCc2ccc(Cl)c(Cl)c2)CC1 [Example 3, (2R)-2-[(4-{[(3,4-dichlorophenyl)methyl]amino}-1-piperidinyl)methyl]-1,2-dihydro-3H,8H-2a,5,8a-triazaacenaphthylene-3,8-dione]
MIC [1, 2]: 0.04 µg/mL

O=c1ccc2ncc(=O)n3c2n1CC3CN1CCC(NCc2ccc(Br)cc2)CC1 (stereo not drawn) [Example 29, 2-[(4-{[(4-bromophenyl)methyl]amino}-1-piperidinyl)methyl]-1,2-dihydro-3H,8H-2a,5,8a-triazaacenaphthylene-3,8-dione]
MIC [1, 2]: 0.147 µg/mL (≈ 0.313 µM)
